Results taken from the supplement of paper PMC10307832.

Legend:
Assay in all cases: relative viability (nuclei count vs DMSO), 5 days (fraction); higher = more cells survive
ABC-1 = test system: ABC-1
Summary of the method: (§1)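 Medians of duplicate plates are given as relative viability. That measure is the nuclei count in treated wells divided by the count in vehicle wells. Counts were taken on 4× images of lung cancer cell lines in 1536-well plates, 5 days after pin-tool dosing the day after seeding with one drug alone or a fixed anchor-drug dose plus five library-drug doses (not always all listed) in √10 steps.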

COR-L23 = test system: COR-L23
Summary of the method: as §1

EPLC-272H = test system: EPLC-272H
Summary of the method: as §1

HARA = test system: HARA
Summary of the method: as §1

HCC-15 = test system: HCC-15
Summary of the method: as §1

HCC-44 = test system: HCC-44
Summary of the method: as §1

HOP-62 = test system: HOP-62
Summary of the method: as §1

LC-2-ad = test system: LC-2-ad
Summary of the method: as §1

LU99A = test system: LU99A
Summary of the method: as §1

NCI-H1355 = test system: NCI-H1355
Summary of the method: as §1

NCI-H1651 = test system: NCI-H1651
Summary of the method: as §1

NCI-H1915 = test system: NCI-H1915
Summary of the method: as §1

NCI-H1993 = test system: NCI-H1993
Summary of the method: as §1

NCI-H2023 = test system: NCI-H2023
Summary of the method: as §1

NCI-H2085 = test system: NCI-H2085
Summary of the method: as §1

NCI-H2126 = test system: NCI-H2126
Summary of the method: as §1

NCI-H2347 = test system: NCI-H2347
Summary of the method: as §1

NCI-H650 = test system: NCI-H650
Summary of the method: as §1

NCI-H838 = test system: NCI-H838
Summary of the method: as §1

PC-14 = test system: PC-14
Summary of the method: as §1

SW 1573 = test system: SW 1573
Summary of the method: as §1

UMC-11 = test system: UMC-11
Summary of the method: as §1

## Cc1sc2c(c1C)C(c1ccc(Cl)cc1)=N[C@@H](CC(=O)OC(C)(C)C)c1nnc(C)n1-2 [JQ1] + CC(=O)c1c(C)c2cnc(Nc3ccc(N4CCNCC4)cn3)nc2n(C2CCCC2)c1=O [Palbociclib] (partner 0.5 µM)
ABC-1; first compound 0.04 µM
  relative viability: 0.701
ABC-1; first compound 0.1265 µM
  relative viability: 0.479
ABC-1; first compound 0.4 µM
  relative viability: 0.44
ABC-1; first compound 1.265 µM
  relative viability: 0.451
ABC-1; first compound 4 µM
  relative viability: 0.334
COR-L23; first compound 0.04 µM
  relative viability: 0.336
COR-L23; first compound 0.1265 µM
  relative viability: 0.193
COR-L23; first compound 0.4 µM
  relative viability: 0.25
COR-L23; first compound 1.265 µM
  relative viability: 0.165
COR-L23; first compound 4 µM
  relative viability: 0.162
EPLC-272H; first compound 0.04 µM
  relative viability: 0.315
EPLC-272H; first compound 0.1265 µM
  relative viability: 0.252
EPLC-272H; first compound 0.4 µM
  relative viability: 0.308
EPLC-272H; first compound 1.265 µM
  relative viability: 0.26
EPLC-272H; first compound 4 µM
  relative viability: 0.224
HARA; first compound 0.04 µM
  relative viability: 0.224
HARA; first compound 0.1265 µM
  relative viability: 0.193
HARA; first compound 0.4 µM
  relative viability: 0.228
HARA; first compound 1.265 µM
  relative viability: 0.229
HARA; first compound 4 µM
  relative viability: 0.189
HCC-15; first compound 0.04 µM
  relative viability: 0.648
HCC-15; first compound 0.1265 µM
  relative viability: 0.585
HCC-15; first compound 0.4 µM
  relative viability: 0.64
HCC-15; first compound 1.265 µM
  relative viability: 0.561
HCC-15; first compound 4 µM
  relative viability: 0.395
HCC-44; first compound 0.04 µM
  relative viability: 0.96
HCC-44; first compound 0.1265 µM
  relative viability: 0.942
HCC-44; first compound 0.4 µM
  relative viability: 1.11
HCC-44; first compound 1.265 µM
  relative viability: 0.978
HCC-44; first compound 4 µM
  relative viability: 0.728
HOP-62; first compound 0.04 µM
  relative viability: 0.424
HOP-62; first compound 0.1265 µM
  relative viability: 0.323
HOP-62; first compound 0.4 µM
  relative viability: 0.152
HOP-62; first compound 1.265 µM
  relative viability: 0.106
HOP-62; first compound 4 µM
  relative viability: 0.0968
LC-2-ad; first compound 0.04 µM
  relative viability: 0.514
LC-2-ad; first compound 0.1265 µM
  relative viability: 0.433
LC-2-ad; first compound 0.4 µM
  relative viability: 0.342
LC-2-ad; first compound 1.265 µM
  relative viability: 0.279
LC-2-ad; first compound 4 µM
  relative viability: 0.281
LU99A; first compound 0.04 µM
  relative viability: 0.465
LU99A; first compound 0.4 µM
  relative viability: 0.287
LU99A; first compound 1.265 µM
  relative viability: 0.185
LU99A; first compound 4 µM
  relative viability: 0.176
NCI-H1355; first compound 0.04 µM
  relative viability: 0.375
NCI-H1355; first compound 0.1265 µM
  relative viability: 0.372
NCI-H1355; first compound 0.4 µM
  relative viability: 0.323
NCI-H1355; first compound 1.265 µM
  relative viability: 0.276
NCI-H1355; first compound 4 µM
  relative viability: 0.233
NCI-H1651; first compound 0.04 µM
  relative viability: 0.494
NCI-H1651; first compound 0.1265 µM
  relative viability: 0.416
NCI-H1651; first compound 0.4 µM
  relative viability: 0.403
NCI-H1651; first compound 1.265 µM
  relative viability: 0.299
NCI-H1651; first compound 4 µM
  relative viability: 0.282
NCI-H1915; first compound 0.04 µM
  relative viability: 0.542
NCI-H1915; first compound 0.4 µM
  relative viability: 0.37
NCI-H1915; first compound 1.265 µM
  relative viability: 0.295
NCI-H1915; first compound 4 µM
  relative viability: 0.179
NCI-H1993; first compound 0.04 µM
  relative viability: 0.772
NCI-H1993; first compound 0.1265 µM
  relative viability: 0.734
NCI-H1993; first compound 0.4 µM
  relative viability: 0.613
NCI-H1993; first compound 1.265 µM
  relative viability: 0.613
NCI-H1993; first compound 4 µM
  relative viability: 0.714
NCI-H2023; first compound 0.04 µM
  relative viability: 0.338
NCI-H2023; first compound 0.1265 µM
  relative viability: 0.281
NCI-H2023; first compound 0.4 µM
  relative viability: 0.225
NCI-H2023; first compound 1.265 µM
  relative viability: 0.135
NCI-H2023; first compound 4 µM
  relative viability: 0.105
NCI-H2085; first compound 0.04 µM
  relative viability: 0.458
NCI-H2085; first compound 0.1265 µM
  relative viability: 0.427
NCI-H2085; first compound 0.4 µM
  relative viability: 0.508
NCI-H2085; first compound 1.265 µM
  relative viability: 0.418
NCI-H2085; first compound 4 µM
  relative viability: 0.462
NCI-H2126; first compound 0.04 µM
  relative viability: 0.345
NCI-H2126; first compound 0.1265 µM
  relative viability: 0.401
NCI-H2126; first compound 0.4 µM
  relative viability: 0.368
NCI-H2126; first compound 1.265 µM
  relative viability: 0.348
NCI-H2126; first compound 4 µM
  relative viability: 0.37
NCI-H2347; first compound 0.04 µM
  relative viability: 0.446
NCI-H2347; first compound 0.1265 µM
  relative viability: 0.393
NCI-H2347; first compound 0.4 µM
  relative viability: 0.385
NCI-H2347; first compound 1.265 µM
  relative viability: 0.327
NCI-H2347; first compound 4 µM
  relative viability: 0.32
NCI-H650; first compound 0.04 µM
  relative viability: 0.328
NCI-H650; first compound 0.1265 µM
  relative viability: 0.259
NCI-H650; first compound 0.4 µM
  relative viability: 0.228
NCI-H650; first compound 1.265 µM
  relative viability: 0.176
NCI-H650; first compound 4 µM
  relative viability: 0.164
NCI-H838; first compound 0.04 µM
  relative viability: 0.205
NCI-H838; first compound 0.1265 µM
  relative viability: 0.194
NCI-H838; first compound 0.4 µM
  relative viability: 0.167
NCI-H838; first compound 1.265 µM
  relative viability: 0.164
NCI-H838; first compound 4 µM
  relative viability: 0.162
PC-14; first compound 0.04 µM
  relative viability: 0.486
PC-14; first compound 0.1265 µM
  relative viability: 0.238
PC-14; first compound 0.4 µM
  relative viability: 0.221
PC-14; first compound 1.265 µM
  relative viability: 0.116
PC-14; first compound 4 µM
  relative viability: 0.104
SW 1573; first compound 0.04 µM
  relative viability: 0.372
SW 1573; first compound 0.1265 µM
  relative viability: 0.274
SW 1573; first compound 0.4 µM
  relative viability: 0.202
SW 1573; first compound 1.265 µM
  relative viability: 0.129
SW 1573; first compound 4 µM
  relative viability: 0.118
UMC-11; first compound 0.04 µM
  relative viability: 0.292
UMC-11; first compound 0.1265 µM
  relative viability: 0.226
UMC-11; first compound 0.4 µM
  relative viability: 0.227
UMC-11; first compound 1.265 µM
  relative viability: 0.257
UMC-11; first compound 4 µM
  relative viability: 0.184
